In PubChem BioAssay AID330 (DTP/NCI, 2004):
Several values for one entry are separate records, joined by “and”; a condition that tells them apart may be missing. Identical values can stand only once. Inconclusive results and toxic doses are left out.

System: P388 leukemia ip, CD2F1 mice, survival T/C
Assay: NCI In Vivo Anticancer Drug Screen. Data for tumor model P388 Leukemia (intraperitoneal) in CD2F1 (CDF1) mice
Settings: endpoint: median survival time, higher = longer survival
How it was run: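 Mice carrying the transplanted tumor received test compound or vehicle. Survival was recorded in each group, and the value is the treated-group measurement divided by that of the vehicle-treated control group.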

[1] = dose: 50.0 mg/kg/injection, schedule: Q01DX009 (ip), vehicle: other
[2] = dose: 100.0 mg/kg/injection, schedule: Q01DX009 (ip), vehicle: other
[3] = dose: 200.0 mg/kg/injection, schedule: Q01DX009 (ip), vehicle: other
[4] = dose: 50.0 mg/kg/injection, schedule: Q01DX009 (ip), vehicle: saline with Tween-80
[5] = dose: 100.0 mg/kg/injection, schedule: Q04DX003 (ip), vehicle: saline with Tween-80
[6] = dose: 100.0 mg/kg/injection, schedule: Q01DX009 (ip), vehicle: saline with Tween-80
[7] = dose: 50.0 mg/kg/injection, schedule: Q01DX009 (ip), vehicle: Klucel (hydroxypropylcellulose) (HPC)
[8] = dose: 100.0 mg/kg/injection, schedule: Q01DX009 (ip), vehicle: Klucel (hydroxypropylcellulose) (HPC)
[9] = dose: 200.0 mg/kg/injection, schedule: Q01DX009 (ip), vehicle: Klucel (hydroxypropylcellulose) (HPC)
[10] = dose: 50.0 mg/kg/injection, schedule: Q01DX005 (ip), vehicle: Klucel (hydroxypropylcellulose) (HPC)
[11] = dose: 100.0 mg/kg/injection, schedule: Q01DX005 (ip), vehicle: Klucel (hydroxypropylcellulose) (HPC)
[12] = dose: 200.0 mg/kg/injection, schedule: Q01DX005 (ip), vehicle: Klucel (hydroxypropylcellulose) (HPC)
[13] = dose: 100.0 mg/kg/injection, schedule: Q01DX009 (ip), vehicle: saline
[14] = dose: 200.0 mg/kg/injection, schedule: Q01DX009 (ip), vehicle: saline

Structure (SMILES): Cl[Si]1(Cl)CCCC1
- T/C [1]: 99 % of control
- T/C [2]: 100 % of control
- T/C [3]: 99 % of control

Structure (SMILES): C[Si](C)(CCCNCCN)O[Si](C)(C)CCCNCCN
- T/C (dose: 15.0 mg/kg/injection, schedule: Q01DX005 (ip), vehicle: saline with Tween-80): 104 % of control
- T/C (dose: 30.0 mg/kg/injection, schedule: Q01DX005 (ip), vehicle: saline with Tween-80): 118 % of control
- T/C (dose: 60.0 mg/kg/injection, schedule: Q01DX005 (ip), vehicle: saline with Tween-80): 94 % of control and 96 % of control

Structure (SMILES): O=C(OC1OC(COCc2ccccc2)C(OCc2ccccc2)C(OCc2ccccc2)C1OCc1ccccc1)c1ccc([N+](=O)[O-])cc1 (centres undefined)
- T/C (dose: 100.0 mg/kg/injection, schedule: Q01DX001 (ip), vehicle: saline with Tween-80): 92 % of control
- T/C (dose: 200.0 mg/kg/injection, schedule: Q01DX001 (ip), vehicle: saline with Tween-80): 90 % of control

Structure (SMILES): O=c1c(N=Nc2ccccc2)c(C(O)C(O)CO)[nH]n1-c1ccc(Cl)cc1 (centres undefined)
- T/C (dose: 63.5 mg/kg/injection, schedule: Q01DX001 (ip), vehicle: Klucel (hydroxypropylcellulose) (HPC)): 87 % of control
- T/C (dose: 127.0 mg/kg/injection, schedule: Q01DX001 (ip), vehicle: Klucel (hydroxypropylcellulose) (HPC)): 89 % of control
- T/C (dose: 254.0 mg/kg/injection, schedule: Q01DX001 (ip), vehicle: Klucel (hydroxypropylcellulose) (HPC)): 100 % of control

Structure (SMILES): CCOC(=O)Sc1ncnc2nc[nH]c12
- T/C (dose: 33.0 mg/kg/injection, schedule: Q01DX009 (ip), vehicle: saline with Tween-80): 113 % of control
- T/C [4]: 122 % of control
- T/C (dose: 75.0 mg/kg/injection, schedule: Q01DX009 (ip), vehicle: saline with Tween-80): 122 % of control
- T/C [5]: 104 % of control
- T/C (dose: 200.0 mg/kg/injection, schedule: Q04DX003 (ip), vehicle: saline with Tween-80): 108 % of control

Structure (SMILES): CC(C)(C)c1ccc(O)c(CNCc2ccccc2)c1
- T/C (dose: 25.0 mg/kg/injection, schedule: Q01DX005 (ip), vehicle: Klucel + Tween-80): 99 % of control
- T/C (dose: 50.0 mg/kg/injection, schedule: Q01DX005 (ip), vehicle: Klucel + Tween-80): 97 % of control
- T/C (dose: 100.0 mg/kg/injection, schedule: Q01DX005 (ip), vehicle: Klucel + Tween-80): 93 % of control
- T/C (dose: 200.0 mg/kg/injection, schedule: Q01DX005 (ip), vehicle: Klucel + Tween-80): 100 % of control

Structure (SMILES): CSc1c(C#N)c(N)nn1-c1ccccn1
- T/C (dose: 100.0 mg/kg/injection, schedule: Q04DX002 (ip), vehicle: saline with Tween-80): 100 % of control
- T/C (dose: 200.0 mg/kg/injection, schedule: Q04DX002 (ip), vehicle: saline with Tween-80): 98 % of control
- T/C (dose: 400.0 mg/kg/injection, schedule: Q04DX002 (ip), vehicle: saline with Tween-80): 99 % of control

Structure (SMILES): O=C(O)CNC(=O)C(F)(F)F
- T/C [4]: 93 % of control
- T/C [6]: 91 % of control
- T/C (dose: 200.0 mg/kg/injection, schedule: Q01DX009 (ip), vehicle: saline with Tween-80): 95 % of control

Structure (SMILES): Cc1cs/c(=N/N=C2C=CC(=O)C=C2)n1O
- T/C [7]: 102 % of control
- T/C [8]: 107 % of control
- T/C [9]: 101 % of control

Structure (SMILES): Cc1oc2c(C)c3oc(=O)cc(C)c3cc2c1CN1C(=O)c2ccccc2C1=O
- T/C (dose: 100.0 mg/kg/injection, schedule: Q05DX002 (ip), vehicle: saline with Tween-80): 99 % of control
- T/C (dose: 200.0 mg/kg/injection, schedule: Q05DX002 (ip), vehicle: saline with Tween-80): 92 % of control
- T/C (dose: 400.0 mg/kg/injection, schedule: Q05DX002 (ip), vehicle: saline with Tween-80): 98 % of control

Structure (SMILES): COc1cc2c(=O)n(C)c3ccccc3c2cc1OC
- T/C (dose: 25.0 mg/kg/injection, schedule: Q01DX009 (ip), vehicle: other): 91 % of control
- T/C [1]: 90 % of control
- T/C [2]: 91 % of control
- T/C [3]: 93 % of control
- T/C (dose: 400.0 mg/kg/injection, schedule: Q01DX009 (ip), vehicle: other): 99 % of control

Structure (SMILES): CCN(CC)C(Cl)=Nc1ccc(Cl)cc1
- T/C [7]: 94 % of control
- T/C [8]: 100 % of control
- T/C [9]: 94 % of control

Structure (SMILES): CN(C)CCNc1ccc(NCCN(C)C)c2c1C(=O)c1ccccc1C2=O
- T/C (dose: 2.5 mg/kg/injection, schedule: Q01DX009 (ip), vehicle: distilled water + Tween-80): 117 % of control
- T/C (dose: 5.0 mg/kg/injection, schedule: Q01DX009 (ip), vehicle: distilled water + Tween-80): 124 % of control
- T/C (dose: 20.0 mg/kg/injection, schedule: Q01DX009 (ip), vehicle: acid diluted with saline): 163 % of control
- T/C (dose: 20.0 mg/kg/injection, schedule: Q01DX009 (ip), vehicle: distilled water + Tween-80): 159 % of control
- T/C (dose: 40.0 mg/kg/injection, schedule: Q01DX009 (ip), vehicle: acid diluted with saline): 202 % of control
- T/C (dose: 40.0 mg/kg/injection, schedule: Q01DX009 (ip), vehicle: distilled water + Tween-80): 162 % of control

Structure (SMILES): NC(C(=O)O)C(N)C(=O)O (centres undefined)
- T/C [6]: 90 % of control
- T/C (dose: 400.0 mg/kg/injection, schedule: Q01DX009 (ip), vehicle: saline with Tween-80): 100 % of control

Structure (SMILES): O=c1[nH]c(=O)n(C2OC(CCl)C(O)C2O)cc1F (centres undefined)
- T/C (dose: 30.0 mg/kg/injection, schedule: Q04DX002 (ip), vehicle: saline): 99 % of control
- T/C (dose: 43.0 mg/kg/injection, schedule: Q04DX002 (ip), vehicle: water): 104 % of control
- T/C (dose: 60.0 mg/kg/injection, schedule: Q04DX002 (ip), vehicle: saline): 102 % of control
- T/C (dose: 86.0 mg/kg/injection, schedule: Q04DX002 (ip), vehicle: water): 106 % of control
- T/C (dose: 120.0 mg/kg/injection, schedule: Q04DX002 (ip), vehicle: saline): 116 % of control
- T/C (dose: 172.0 mg/kg/injection, schedule: Q04DX002 (ip), vehicle: water): 113 % of control
- T/C (dose: 240.0 mg/kg/injection, schedule: Q04DX002 (ip), vehicle: saline): 109 % of control
- T/C (dose: 344.0 mg/kg/injection, schedule: Q04DX002 (ip), vehicle: water): 113 % of control

Structure (SMILES): O=c1[nH]cc(COCC(F)(F)F)c(=O)[nH]1
- T/C (dose: 50.0 mg/kg/injection, schedule: Q04DX003 (ip), vehicle: saline with Tween-80): 99 % of control
- T/C [5]: 111 % of control

Structure (SMILES): CCOc1ccc(C2c3ccc(OC)cc3OC(C)(C)C2c2ccccc2)cc1[N+](=O)[O-] (centres undefined)
- T/C [10]: 101 % of control
- T/C [11]: 99 % of control
- T/C [12]: 95 % of control

Structure (SMILES): FC(F)(F)c1nnc(-c2ccccc2)nn1
- T/C (dose: 100.0 mg/kg/injection, schedule: Q04DX002 (ip), vehicle: Klucel (hydroxypropylcellulose) (HPC)): 100 % of control
- T/C (dose: 200.0 mg/kg/injection, schedule: Q04DX002 (ip), vehicle: Klucel (hydroxypropylcellulose) (HPC)): 104 % of control

Structure (SMILES): OCC1OC(OCC2OC(OC3(CO)OC(CO)C(O)C3O)C(O)C(O)C2O)C(O)C(O)C1O (centres undefined)
- T/C (dose: 100.0 mg/kg/injection, schedule: Q01DX001 (ip), vehicle: saline): 102 % of control
- T/C (dose: 200.0 mg/kg/injection, schedule: Q01DX001 (ip), vehicle: saline): 103 % of control
- T/C (dose: 400.0 mg/kg/injection, schedule: Q01DX001 (ip), vehicle: saline): 93 % of control

Structure (SMILES): CC(/C=C/c1ccccc1)=N\NC(=O)C(N)=O
- T/C (dose: 12.5 mg/kg/injection, schedule: Q01DX009 (ip), vehicle: saline with Tween-80): 97 % of control
- T/C (dose: 25.0 mg/kg/injection, schedule: Q01DX009 (ip), vehicle: saline with Tween-80): 97 % of control
- T/C [4]: 96 % of control
- T/C (dose: 50.0 mg/kg/injection, schedule: Q01DX009 (ip), vehicle: saline): 100 % of control
- T/C [13]: 91 % of control
- T/C [14]: 98 % of control

Structure (SMILES): O=C(O)CCN1c2ccccc2Sc2ccccc21
- T/C [7]: 89 % of control
- T/C [8]: 100 % of control
- T/C [9]: 99 % of control
- T/C (dose: 400.0 mg/kg/injection, schedule: Q01DX009 (ip), vehicle: Klucel (hydroxypropylcellulose) (HPC)): 101 % of control

Structure (SMILES): NC(N)=NS(=O)(=O)c1ccc(N=Nc2c(O)n(-c3ccccc3)n(-c3ccccc3)c2=O)cc1
- T/C [7]: 88 % of control
- T/C [8]: 94 % of control

Structure (SMILES): O=C(N/N=C/c1ccccc1O)c1cccc([N+](=O)[O-])c1
- T/C [13]: 99 % of control
- T/C [14]: 100 % of control
- T/C (dose: 400.0 mg/kg/injection, schedule: Q01DX009 (ip), vehicle: saline): 91 % of control

Structure (SMILES): Cc1ccnc(C2=C(O)c3ccccc3C2=O)c1
- T/C [10]: 102 % of control
- T/C [11]: 90 % of control
- T/C [12]: 91 % of control
